From paper PMC10769324 (bioRxiv, 2024)

Columns and labels:
5-HT2A [1] = target: T1, 5-HT2A (Homo sapiens, UniProt P28223); type: binding; conditions: [3H]-LSD 0.5 nM, HEK293 membranes; for log(Ki): printed as log(Ki) with negative sign
5-HT2A [2] = target: T1, 5-HT2A; conditions: Gαq dissociation vs β-arrestin2 recruitment, versus 5-HT

T1 sequence (P28223 whole entry): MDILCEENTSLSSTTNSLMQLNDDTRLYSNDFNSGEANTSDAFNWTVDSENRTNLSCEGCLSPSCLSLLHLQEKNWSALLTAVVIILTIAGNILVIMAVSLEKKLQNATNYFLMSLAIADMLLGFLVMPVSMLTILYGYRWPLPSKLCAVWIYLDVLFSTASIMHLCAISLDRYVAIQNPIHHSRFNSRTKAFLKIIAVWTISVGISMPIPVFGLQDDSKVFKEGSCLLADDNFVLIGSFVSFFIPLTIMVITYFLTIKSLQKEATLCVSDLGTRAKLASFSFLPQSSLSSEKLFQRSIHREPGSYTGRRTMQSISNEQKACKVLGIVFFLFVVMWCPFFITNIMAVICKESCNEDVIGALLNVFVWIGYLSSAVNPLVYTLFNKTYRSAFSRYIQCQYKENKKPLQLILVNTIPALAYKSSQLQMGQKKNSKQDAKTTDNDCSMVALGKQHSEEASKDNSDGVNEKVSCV

CN(C(=O)c1cn[nH]n1)C1CCN(CCc2cccc(Cl)c2Cl)C1 (stereo not shown) [Compound Z7619689892]
Ki (5-HT2A [1]): 17 nM | log(Ki) (5-HT2A [1]): −7.78 ± 0.077

COc1ccccc1CC1CCN(CC(=O)c2cc(C)[nH]c2C)C1 (stereo not shown) [Compound Z7619689903]
Ki (5-HT2A [1]): 344 nM | log(Ki) (5-HT2A [1]): −6.46 ± 0.086

NCCc1c[nH]c2ccc(O)cc12 [serotonin]
Apparent Bias Factor (5-HT2A [2]): 1.0

CC(C)C(N)CCN(C)C(=O)C(=O)Nc1cc2ccccc2cc1Cl (stereo not shown) [Compound Z5247694451]
log(Ki) (5-HT2A [1]): −7.15 ± 0.073

C=C/C=C/CCN1CCC(O)(c2cccc(Br)c2)C1 (stereo not shown) [Compound Z5247693129]
log(Ki) (5-HT2A [1]): −6.49 ± 0.094

c1ccc(O[C@H]2CCN(Cc3ccc(-c4ccn[nH]4)o3)C2)cc1 [Compound Z2449215308]
Ki (5-HT2A [1]): 162 nM | log(Ki) (5-HT2A [1]): −6.79 ± 0.100

Cc1cccc(OCCCC(=O)N2CCNCc3ccccc32)c1 [Compound Z2393190959]
log(Ki) (5-HT2A [1]): −6.51 ± 0.085

C=CCNC(=O)C(C)N1CCCC(c2ccc(O)cc2)C1 (stereo not shown) [Compound Z3517963976]
Ki (5-HT2A [1]): 113 nM | log(Ki) (5-HT2A [1]): −6.95 ± 0.085

O=C(c1cc(C2CCNC2)[nH]n1)N1CCC(c2cccc(Cl)c2)C1 (stereo not shown) [Compound Z3808146201]
log(Ki) (5-HT2A [1]): −6.51 ± 0.096

NCC1Cc2cc(F)ccc2N(C(=O)Cc2cc(F)ccc2Br)C1 (stereo not shown) [Compound Z7704262288]
Ki (5-HT2A [1]): 15 nM

Oc1ccc(C2=CCN(CC3CC34CC4)CC2)cc1 (stereo not shown) [Compound Z2945615615]
Ki (5-HT2A [1]): 24 nM | log(Ki) (5-HT2A [1]): −7.62 ± 0.104

Clc1ccc(C#CCN2CCCC(c3ccn[nH]3)C2)cc1 (stereo not shown) [Compound Z1348472291]
log(Ki) (5-HT2A [1]): −6.65 ± 0.083

CCN(Cc1cc(Br)ccc1O)C(=O)C(N)Cc1ccco1 (stereo not shown) [Compound Z3865153101]
Ki (5-HT2A [1]): 114 nM | log(Ki) (5-HT2A [1]): −6.94 ± 0.099

NC1Cc2ccccc2N(Cc2cc(O)cc(Br)c2)C1 (stereo not shown) [Compound Z7619689909]
Ki (5-HT2A [1]): 72 nM | log(Ki) (5-HT2A [1]): −7.14 ± 0.078

COc1ccc(COCCN(C)C(C)Cc2ccc(O)cc2)cc1 (stereo not shown) [Compound Z1441676226]
log(Ki) (5-HT2A [1]): −6.77 ± 0.087
